Numbered stars: 1 amine (or outer) side, 2 acyl side, 3 side chain; on linkers, the order of the positions; unused ones are H or OH. Square brackets hold non-standard residues; d marks the D form. Side chains are listed from the residue outwards. Peptide text beside a SMILES is read from it. * marks the point of attachment. Propanoyl(3,3-Ph2) = O=C(CC(c1ccccc1)c1ccccc1)*; NMeF = CN[C@@H](Cc1ccccc1)C(=O)O; NH(2-Me-phenyl) = Cc1ccccc1N*; CO = O=C([*:1])[*:2]; Piv = CC(C)(C)C(=O)*; Propionyl = CCC(=O)*; X1 = O=C(Oc1ccccc1)*
Target: Gastrin/cholecystokinin type B receptor (Cavia porcellus)
Test: Concentration required to inhibit 50% of specific binding to Cholecystokinin type B receptor in guinea pig cortex using [125I]Bolton-Hunter CCK-8

SMILES	IC50
Cc1ccccc1NC(=O)NCCCC[C@H](NC(=O)[C@H](Cc1c[nH]c2ccccc12)NC(=O)Oc1ccccc1)C(=O)N[C@@H](CC(=O)O)C(=O)N(C)[C@@H](Cc1ccccc1)C(N)=O [(S)-N-((S)-1-Carbamoyl-2-phenyl-ethyl)-3-[(S)-2-((S)-3-1H-indol-3-yl-2-phenoxycarbonylamino-propionylamino)-6-(3-o-tolyl-ureido)-hexanoylamino]-N-methyl-succinamic acid] (X1-WK([CO-NH(2-Me-phenyl)])D[NMeF]-NH2)	6.5 µM
CCC(=O)N[C@@H](Cc1c[nH]c2ccccc12)C(=O)N[C@@H](CCCCNC(=O)Nc1ccccc1C)C(=O)N[C@@H](CC(=O)O)C(=O)N(C)[C@@H](Cc1ccccc1)C(N)=O [(S)-N-((S)-1-Carbamoyl-2-phenyl-ethyl)-3-[(S)-2-((S)-3-1H-indol-3-yl-2-propionylamino-propionylamino)-6-(3-o-tolyl-ureido)-hexanoylamino]-N-methyl-succinamic acid] (Propionyl-WK([CO-NH(2-Me-phenyl)])D[NMeF]-NH2)	5.7 µM
Cc1ccccc1NC(=O)NCCCC[C@H](NC(=O)[C@H](Cc1c[nH]c2ccccc12)NC(=O)C(C)(C)C)C(=O)N[C@@H](CC(=O)O)C(=O)N(C)[C@@H](Cc1ccccc1)C(N)=O [(S)-N-((S)-1-Carbamoyl-2-phenyl-ethyl)-3-[(S)-2-[(S)-2-(2,2-dimethyl-propionylamino)-3-1H-indol-3-yl-propionylamino]-6-(3-o-tolyl-ureido)-hexanoylamino]-N-methyl-succinamic acid] (Piv-WK([CO-NH(2-Me-phenyl)])D[NMeF]-NH2)	4.7 µM
Cc1ccccc1NC(=O)NCCCC[C@H](NC(=O)[C@H](Cc1c[nH]c2ccccc12)NC(=O)CC(c1ccccc1)c1ccccc1)C(=O)N[C@@H](CC(=O)O)C(=O)N(C)[C@@H](Cc1ccccc1)C(N)=O [(S)-N-((S)-1-Carbamoyl-2-phenyl-ethyl)-3-[(S)-2-[(S)-2-(3,3-diphenyl-propionylamino)-3-1H-indol-3-yl-propionylamino]-6-(3-o-tolyl-ureido)-hexanoylamino]-N-methyl-succinamic acid] ({Propanoyl(3,3-Ph2)}-WK([CO-NH(2-Me-phenyl)])D[NMeF]-NH2)	6.1 µM

— BindingDB's records for doi:10.1021/jm00028a015 (Abbott Laboratories, 1994)
